The source made the active and inactive calls. No cut-off for these calls is given here.
Assays:
[1] = target: Serine/threonine-protein kinase B-raf (Homo sapiens, UniProt P15056); test: Inhibition of BRAF
A-375 = test: Growth inhibition of human A375 cells after 4 days by MTT assay; format: functional, cell-based; conditions: A-375, 96 h
[2] = Half life in human liver microsomes; format: ADME, Microsome
[3] = Half life in nude mouse liver microsomes; format: ADME, Microsome
[4] = tested on: Serine/threonine-protein kinase B-raf (Homo sapiens), P15056 [V600E]; test: Inhibition of BRAF V600E mutant in human A375 cells assessed as reduction of ERK phosphorylation; format: cell-based; conditions: A-375
Serine/threonine-protein kinase B-raf (Homo sapiens), P15056 [V600E], sequence (P15056 whole entry V600E): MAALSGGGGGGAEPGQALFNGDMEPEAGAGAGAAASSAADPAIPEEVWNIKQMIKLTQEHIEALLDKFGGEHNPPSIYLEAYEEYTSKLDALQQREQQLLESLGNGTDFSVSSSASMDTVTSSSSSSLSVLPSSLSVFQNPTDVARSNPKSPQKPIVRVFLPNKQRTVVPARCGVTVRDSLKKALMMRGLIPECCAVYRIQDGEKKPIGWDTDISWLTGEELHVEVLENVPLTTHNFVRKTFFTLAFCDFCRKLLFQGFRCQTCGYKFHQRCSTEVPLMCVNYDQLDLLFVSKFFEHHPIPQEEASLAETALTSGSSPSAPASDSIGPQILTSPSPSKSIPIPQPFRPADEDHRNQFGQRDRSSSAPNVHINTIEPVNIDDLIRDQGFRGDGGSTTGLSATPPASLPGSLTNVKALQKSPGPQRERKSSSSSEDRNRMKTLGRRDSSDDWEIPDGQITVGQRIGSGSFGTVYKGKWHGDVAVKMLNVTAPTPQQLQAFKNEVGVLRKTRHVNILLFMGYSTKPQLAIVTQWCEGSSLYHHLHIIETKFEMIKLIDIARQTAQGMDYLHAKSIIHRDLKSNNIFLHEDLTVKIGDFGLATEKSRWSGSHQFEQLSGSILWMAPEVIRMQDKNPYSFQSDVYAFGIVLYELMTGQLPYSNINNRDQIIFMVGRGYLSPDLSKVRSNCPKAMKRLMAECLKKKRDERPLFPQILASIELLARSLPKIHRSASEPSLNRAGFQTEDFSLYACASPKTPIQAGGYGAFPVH

Serine/threonine-protein kinase B-raf, sequence (P15056 whole entry): as the sequence (P15056 whole entry V600E) above, with E600V counted along it

Row | Compound | IC50 [1] [nM] | IC50 (A-375) [nM] | half-life [2] [min] | half-life [3] [min] | inhibition [4]
1 | CN1C[C@@H]2C[C@H]1CN2c1ccc(-c2ccnc3c(-c4ccc(F)c5[nH]ncc45)c(-c4ccncc4)nn23)cc1 | 0.5 | 68 | – | – | –
2 | CN1C[C@@H]2C[C@H]1CN2c1ccc(-c2ccnc3c(-c4cccc5[nH]ncc45)c(-c4ccncc4)nn23)c(Br)c1 | < 0.32 | – | – | – | –
3 | Fc1cc(N2C[C@@H]3C[C@H]2CN3C2CCC2)cc(F)c1-c1ccnc2c(-c3cccc4[nH]ncc34)c(-c3ccncc3)nn12 | < 0.32 | 78 | 3 | 5 | –
4 | CC(C)N1C[C@@H]2C[C@H]1CN2c1cc(F)c(-c2ccnc3c(-c4cccc5[nH]ncc45)c(-c4ccncc4)nn23)c(F)c1 | < 0.32 | 55 | 5 | 17 | –
5 | Cc1cc(N2C[C@@H]3C[C@H]2CN3C)ccc1-c1ccnc2c(-c3cccc4[nH]ncc34)c(-c3ccncc3)nn12 | 0.51 | 137 | – | – | –
6 | CN1C[C@@H]2C[C@H]1CN2c1ccc(-c2ccnc3c(-c4cccc5[nH]ncc45)c(-c4ccncc4)nn23)c(F)c1F | 0.61 | 107 | – | – | –
7 | c1cc(-c2c(-c3ccncc3)nn3c(-c4ccc(CN5C[C@@H]6C[C@H]5CO6)cc4)ccnc23)c2cn[nH]c2c1 | – | 945 | – | – | –
8 | Fc1cc(CN2C3COCC2COC3)ccc1-c1ccnc2c(-c3cccc4[nH]ncc34)c(-c3ccncc3)nn12 | 0.77 | 304 | – | – | –
9 | CN1C[C@@H]2C[C@H]1CN2c1ccc(-c2ccnc3c(-c4cccc5[nH]ncc45)c(-c4ccncc4)nn23)cc1C(F)(F)F | – | 273 | – | – | –
10 | CN1C[C@@H]2C[C@H]1CN2c1c(F)c(F)c(-c2ccnc3c(-c4cccc5[nH]ncc45)c(-c4ccncc4)nn23)c(F)c1F | 0.35 | 70 | – | – | –
11 | CN1C[C@@H]2C[C@H]1CN2c1ccc(-c2ccnc3c(-c4cccc5[nH]ncc45)c(-c4ccncc4)nn23)c(F)c1 | 0.23 | 44 | 17 | > 30 | Active
12 | CN1C[C@@H]2CC[C@H]1CN2c1ccc(-c2ccnc3c(-c4cccc5[nH]ncc45)c(-c4ccncc4)nn23)c(F)c1 | 0.41 | 118 | – | – | –
13 | CN1C[C@@H]2C[C@H]1CN2c1cccc(-c2ccnc3c(-c4cccc5[nH]ncc45)c(-c4ccncc4)nn23)c1 | – | 1400 | – | – | –
14 | CN1C[C@@H]2C[C@H]1CN2c1ccc(-c2ccnc3c(-c4cccc(O)c4)c(-c4ccncc4)nn23)cc1 | – | 77 | – | – | Active
15 | CN1C[C@@H]2C[C@H]1CN2c1cc(F)c(-c2ccnc3c(-c4cccc5[nH]ncc45)c(-c4ccncc4)nn23)cc1F | 0.38 | 87 | – | – | –

Further lines, results first:

Row | IC50 [1] [nM] | IC50 (A-375) [nM] | half-life [2] [min] | half-life [3] [min] | inhibition [4] | Compound
16 | < 0.32 | 188 | – | – | – | Cc1cc(N2C[C@@H]3C[C@H]2CN3C)ccc1-c1ccnc2c(-c3ccc(F)c4[nH]ncc34)c(-c3ccncc3)nn12
17 | 2.3 | 9480 | – | – | – | c1cc(-c2c(-c3ccncc3)nn3c(-c4ccc(CN5C[C@@H]6C[C@H]5CN6)cc4)ccnc23)c2cn[nH]c2c1
18 | < 0.32 | 56 | 11 | – | – | CCN1C[C@@H]2C[C@H]1CN2c1cc(F)c(-c2ccnc3c(-c4cccc5[nH]ncc45)c(-c4ccncc4)nn23)c(F)c1
19 | – | 1850 | – | – | – | CN(C)c1cc(N2C[C@@H]3C[C@H]2CN3C)ccc1-c1ccnc2c(-c3cccc4[nH]ncc34)c(-c3ccncc3)nn12
20 | 1 | 25000 | – | – | – | CN1C[C@@H]2C[C@H]1CN2c1ccc(-c2ccnc3c(-c4cccc5[nH]ncc45)c(-c4ccncc4)nn23)c2ccccc12
21 | 0.52 | 78 | – | – | – | Fc1cc(CN2C[C@H]3C[C@@H]2CO3)ccc1-c1ccnc2c(-c3cccc4[nH]ncc34)c(-c3ccncc3)nn12
22 | 1.2 | 268 | – | – | – | Fc1cc(CN2C[C@@H]3C[C@H]2CO3)ccc1-c1ccnc2c(-c3cccc4[nH]ncc34)c(-c3ccncc3)nn12
23 | < 0.1 | 33 | – | – | – | CN1C[C@@H]2C[C@H]1CN2c1ccc(-c2ccnc3c(-c4ccc(F)c5[nH]ncc45)c(-c4ccncc4)nn23)c(F)c1
24 | 0.71 | 185 | – | – | – | CN1C[C@@H]2CC[C@H]1CN2c1ccc(-c2ccnc3c(-c4cccc5[nH]ncc45)c(-c4ccncc4)nn23)cc1
25 | < 0.1 | 39 | – | – | – | CN1C[C@@H]2C[C@H]1CN2c1ccc(-c2ccnc3c(-c4cccc5[nH]ncc45)c(-c4ccncc4)nn23)c(Cl)c1
26 | 0.11 | 17 | – | – | – | CN1C[C@@H]2C[C@H]1CN2c1cc(F)c(-c2ccnc3c(-c4ccc(F)c5[nH]ncc45)c(-c4ccncc4)nn23)c(F)c1
27 | 1.2 | 202 | – | – | – | CN1C[C@@H]2C[C@H]1CN2c1ccc(-c2ccnc3c(-c4cccc5[nH]ncc45)c(-c4ccncc4)nn23)cc1
28 | – | 1250 | – | – | – | CN1C[C@@H]2C[C@H]1CN2c1c(F)cc(-c2ccnc3c(-c4cccc5[nH]ncc45)c(-c4ccncc4)nn23)cc1F
29 | < 0.32 | 89 | 3 | 4 | – | CC(C)CN1C[C@@H]2C[C@H]1CN2c1cc(F)c(-c2ccnc3c(-c4cccc5[nH]ncc45)c(-c4ccncc4)nn23)c(F)c1

— ChEMBL document CHEMBL1275379, “Indazolylpyrazolopyrimidine as highly potent B-Raf inhibitors with in vivo activity” (J Med Chem, 2010)
